This is an account of results in the OligoGym collection.

The series concerns the target firefly luciferase. The series can be described thus: five studies, different assays. Particulars: siRNA.

Only the 19 paired bases of each siRNA are shown; overhangs and chemistry are not given here.
Also: test concentration or dose not given here.

Consider “sense CCGGUUAUGUAAACAAUCC / antisense GGAUUGUUUACAUAACCGG”, for which the target inhibition stood at 41.6%.

With “sense AAUCAGAGAGAUCCUCAUA / antisense UAUGAGGAUCUCUCUGAUU”, the target inhibition was determined as 91.7%.

With “sense GAAGUCUCUGAUUAAGUAC / antisense GUACUUAAUCAGAGACUUC”, the target inhibition worked out at 34.7%.

Take “sense ACGUCGCCAGUCAAGUAAC / antisense GUUACUUGACUGGCGACGU”: the target inhibition was found to be 84.1%. The value for “sense CCUCCCGGUUUUAAUGAAU / antisense AUUCAUUAAAACCGGGAGG” was 73.5%. As for “sense CUCGACGCAAGAAAAAUCA / antisense UGAUUUUUCUUGCGUCGAG”, the figure is 91%. As for “sense AAAGACGAUGACGGAAAAA / antisense UUUUUCCGUCAUCGUCUUU”, the figure is 73.9%.

For the substance “sense UGGAAGAUGGAACCGCUGG / antisense CCAGCGGUUCCAUCUUCCA”, the target inhibition stood at 16.6%. For “sense UGAACUUCCCGCCGCCGUU / antisense AACGGCGGCGGGAAGUUCA”, the target inhibition was determined as 63.3%. Consider “sense UUUGGAGCACGGAAAGACG / antisense CGUCUUUCCGUGCUCCAAA”, for which the target inhibition is -10.4%. Consider “sense GACGAAGUACCGAAAGGUC / antisense GACCUUUCGGUACUUCGUC”, for which the target inhibition came to 89.7%. With “sense GCACGGAAAGACGAUGACG / antisense CGUCAUCGUCUUUCCGUGC”, the target inhibition is 39.2%.

Take “sense CUUCCCGCCGCCGUUGUUG / antisense CAACAACGGCGGCGGGAAG”: the target inhibition was 47.2%.

For “sense AACAUAAAGAAAGGCCCGG / antisense CCGGGCCUUUCUUUAUGUU”, the target inhibition was 7.6%. As for “sense ACCGAAAGGUCUUACCGGA / antisense UCCGGUAAGACCUUUCGGU”, the figure is 94.7%; as for “sense GUUGUGUUUGUGGACGAAG / antisense CUUCGUCCACAAACACAAC”, 90.1%. The value for “sense UCCCGCCGCCGUUGUUGUU / antisense AACAACAACGGCGGCGGGA” was 43.8%. For “sense UUGUUUUGGAGCACGGAAA / antisense UUUCCGUGCUCCAAAACAA”, the target inhibition came out at 89.2%. As for “sense AGAUCCUCAUAAAGGCCAA / antisense UUGGCCUUUAUGAGGAUCU”, the target inhibition stood at 78.2%.

For the substance “sense AGAGAUCGUGGAUUACGUC / antisense GACGUAAUCCACGAUCUCU”, the target inhibition amounted to 82.8%. In the case of “sense AACUCGACGCAAGAAAAAU / antisense AUUUUUCUUGCGUCGAGUU”, the target inhibition was 90.2%. Take “sense AGUUGCGCGGAGGAGUUGU / antisense ACAACUCCUCCGCGCAACU”: the target inhibition was 93.6%. The value for “sense CGACGCAAGAAAAAUCAGA / antisense UCUGAUUUUUCUUGCGUCG” was 95.9%. With “sense AAAAUCAGAGAGAUCCUCA / antisense UGAGGAUCUCUCUGAUUUU”, the target inhibition was 88.4%. The value for “sense GGAAAACUCGACGCAAGAA / antisense UUCUUGCGUCGAGUUUUCC” was 92.7%; that for “sense CGCCGCCGUUGUUGUUUUG / antisense CAAAACAACAACGGCGGCG” was 51.3%. In the case of “sense UACUACACUCGGAUAUUUG / antisense CAAAUAUCCGAGUGUAGUA”, the target inhibition turned out to be 38.6%.

With “sense UCAGAGAGAUCCUCAUAAA / antisense UUUAUGAGGAUCUCUCUGA”, the target inhibition was determined as 92.1%. As for “sense CGGCGCCAUUCUAUCCGCU / antisense AGCGGAUAGAAUGGCGCCG”, the figure is 53.8%; as for “sense GGUGAACUUCCCGCCGCCG / antisense CGGCGGCGGGAAGUUCACC”, 14.5%; as for “sense GAGUUGUGUUUGUGGACGA / antisense UCGUCCACAAACACAACUC”, 95.3%. In the case of “sense CGUGGAUUACGUCGCCAGU / antisense ACUGGCGACGUAAUCCACG”, the target inhibition was 87.1%.

As to “sense UAAAGAAAGGCCCGGCGCC / antisense GGCGCCGGGCCUUUCUUUA”, the target inhibition came out at 5.9%. The value for “sense CGAAGUACCGAAAGGUCUU / antisense AAGACCUUUCGGUACUUCG” was 93.1%. As for “sense ACGAUGACGGAAAAAGAGA / antisense UCUCUUUUUCCGUCAUCGU”, the figure is 80.7%; as for “sense ACGGAAAGACGAUGACGGA / antisense UCCGUCAUCGUCUUUCCGU”, 73.8%. The value for “sense CCGUUGUUGUUUUGGAGCA / antisense UGCUCCAAAACAACAACGG” was 89.3%; that for “sense AAGUACCGAAAGGUCUUAC / antisense GUAAGACCUUUCGGUACUU” was 64.3%; that for “sense ACGCAAGAAAAAUCAGAGA / antisense UCUCUGAUUUUUCUUGCGU” was 87.6%. Take “sense CGCGAAAAAGUUGCGCGGA / antisense UCCGCGCAACUUUUUCGCG”: the target inhibition was 32.1%. The value for “sense AGAGAGAUCCUCAUAAAGG / antisense CCUUUAUGAGGAUCUCUCU” was 92.6%. The value for “sense CCAAUCAUCCAAAAAAUUA / antisense UAAUUUUUUGGAUGAUUGG” was 97.5%. The value for “sense UGUGUUUGUGGACGAAGUA / antisense UACUUCGUCCACAAACACA” was 90.8%. Regarding “sense GCGCGGAGGAGUUGUGUUU / antisense AAACACAACUCCUCCGCGC”, the target inhibition worked out at 86.8%. The value for “sense GAUUAUGUCCGGUUAUGUA / antisense UACAUAACCGGACAUAAUC” was 96.8%; that for “sense CUUACCGGAAAACUCGACG / antisense CGUCGAGUUUUCCGGUAAG” was 94.3%; that for “sense CCUUCAGGAUUACAAGAUU / antisense AAUCUUGUAAUCCUGAAGG” was 98.9%.

For the substance “sense GAGCACGGAAAGACGAUGA / antisense UCAUCGUCUUUCCGUGCUC”, the target inhibition was 20.3%. With “sense GAUGACGGAAAAAGAGAUC / antisense GAUCUCUUUUUCCGUCAUC”, the target inhibition came to 47.6%. As for “sense AGACGAUGACGGAAAAAGA / antisense UCUUUUUCCGUCAUCGUCU”, the figure is 93.1%; as for “sense AAAGGUCUUACCGGAAAAC / antisense GUUUUCCGGUAAGACCUUU”, 71.1%.

For the substance “sense UGGAGCACGGAAAGACGAU / antisense AUCGUCUUUCCGUGCUCCA”, the target inhibition is 52.2%.

Take “sense AGUUGCAGUUGCGCCCGCG / antisense CGCGGGCGCAACUGCAACU”: the target inhibition is 37.3%. As for “sense GUCGCUCUGCCUCAUAGAA / antisense UUCUAUGAGGCAGAGCGAC”, the figure is 69.9%; as for “sense AAAAAGUUGCGCGGAGGAG / antisense CUCCUCCGCGCAACUUUUU”, 38.8%. The value for “sense AAAACAUAAAGAAAGGCCC / antisense GGGCCUUUCUUUAUGUUUU” was 11.1%; that for “sense GUCGCCAGUCAAGUAACAA / antisense UUGUUACUUGACUGGCGAC” was 44.9%; that for “sense CGAAAAAGUUGCGCGGAGG / antisense CCUCCGCGCAACUUUUUCG” was 78.6%. In the case of “sense GUCUUACCGGAAAACUCGA / antisense UCGAGUUUUCCGGUAAGAC”, the target inhibition was 61%. As for “sense ACCGCGAAAAAGUUGCGCG / antisense CGCGCAACUUUUUCGCGGU”, the figure is 29.9%.

Take “sense UCAAGUAACAACCGCGAAA / antisense UUUCGCGGUUGUUACUUGA”: the target inhibition amounted to 88.5%. As for “sense GGUUUUGGAAUGUUUACUA / antisense UAGUAAACAUUCCAAAACC”, the figure is 93.3%. The value for “sense UGUAAACAAUCCGGAAGCG / antisense CGCUUCCGGAUUGUUUACA” was 9.91%.

On to “sense GCUUCGAGCAGACAUGAUA / antisense UAUCAUGUCUGCUCGAAGC”, for which the target inhibition is 97.7%. As to “sense UACCGGAAAACUCGACGCA / antisense UGCGUCGAGUUUUCCGGUA”, the target inhibition was determined as 95.9%. As for “sense UGGAUUACGUCGCCAGUCA / antisense UGACUGGCGACGUAAUCCA”, the figure is 93.6%; as for “sense UAUGCCGGUGUUGGGCGCG / antisense CGCGCCCAACACCGGCAUA”, 19.7%. The value for “sense UGAAGUCUCUGAUUAAGUA / antisense UACUUAAUCAGAGACUUCA” was 91.9%. In the case of “sense GGAUGGAUGGCUACAUUCU / antisense AGAAUGUAGCCAUCCAUCC”, the target inhibition was 97.4%. For the substance “sense GCACUCUGAUUGACAAAUA / antisense UAUUUGUCAAUCAGAGUGC”, the target inhibition was 93%. “sense AGGAGUUGUGUUUGUGGAC / antisense GUCCACAAACACAACUCCU”: the target inhibition came to 87.5%. Regarding “sense UGUUUGUGGACGAAGUACC / antisense GGUACUUCGUCCACAAACA”, the target inhibition was 35.9%.

With “sense UUACGUCGCCAGUCAAGUA / antisense UACUUGACUGGCGACGUAA”, the target inhibition stood at 92.9%. With “sense AAAAAGAGAUCGUGGAUUA / antisense UAAUCCACGAUCUCUUUUU”, the target inhibition was 91.2%. Consider “sense UGACGGAAAAAGAGAUCGU / antisense ACGAUCUCUUUUUCCGUCA”, for which the target inhibition came to 88.8%.

Regarding “sense ACGUGCAAAAAAAGCUCCC / antisense GGGAGCUUUUUUUGCACGU”, the target inhibition was found to be 30%. As for “sense CCGCCGCCGUUGUUGUUUU / antisense AAAACAACAACGGCGGCGG”, the figure is 60.8%; as for “sense CGAAAGGUCUUACCGGAAA / antisense UUUCCGGUAAGACCUUUCG”, 95%. For “sense GUUUUGGAGCACGGAAAGA / antisense UCUUUCCGUGCUCCAAAAC”, the target inhibition was -27.8%. As for “sense AAAACUCGACGCAAGAAAA / antisense UUUUCUUGCGUCGAGUUUU”, the figure is 94.6%.
